Test results taken from patent US20120252784A1, “2,3,4-BENZOTHIADIAZEPINE-2,2-DIOXIDE DERIVATIVES” (priority 2009, published 2012).

Tested on: taurine
Experiment: Changes in amino acid neurotransmitter levels in the cortical area of male rats (HPLC, electrochemical detection)
Assay type: in vivo, rat
Conditions: male SPDR rats, intraperitoneal, 0.4% aqueous methylcellulose suspension, decapitated 30 minutes after administration, compared to vehicle control group
Description: The in vivo biological effectiveness of the compounds of the present invention on the central nervous system was examined by the following experimental model.
Changes in Amino Acid Neurotransmitter Levels in the Cortical Area of Male Rats
Male SPDR rats weighing 200-250 g, were used in the experiments. Changes in the concentration of amino acid neurotransmitters were measured from cortical areas by high-performance liquid chromatography (HPLC) and electrochemical detection.
The investigations were carried out with two experimental groups wherein each group contained 8 animals. One group was administered intraperitoneally by vehicle only (control group). The other group was administered intraperitoneally by the compound of the Example 15, suspended in vehicle. The dose of administration was in the form of 0.4% aqueous methylcellulose suspension.
The animals were decapitated 30 minutes after the administration, brains have been removed and required brain regions were dissected. The tissues were stored at −70° C.
The tissues were homogenized in ice-cold 0.1 M perchlorate in 500 volume excess. […]
The tissue concentrations of the amino acids were measured by standard solutions containing amino acids with known concentration.

SMILES: CN1N=C(c2ccc(F)cc2)c2cc(Cl)ccc2CS1(=O)=O [Example 16, 7-Chloro-5-(4-fluoro-phenyl)-3-methyl-1,3-dihydro-2̂,4-benzothiadiazepin-2,2-dioxide]
- concentrations of the amino acid taurine in the frontal cortex: significantly increased
